Laboratory results published in patent US11851411B2, “Herbicidal compounds” (SYNGENTA CROP PROTECTION AG, priority 2018, dated 2023).

What was measured:
Assay type in all cases: in vivo
[1] = test system: Echinochloa crus-galli (ECHCG); assay: Glasshouse herbicide test, pre-emergence; details: PRE Application; 500 g/h; evaluated after 13 days
Protocol: (§1) Seeds of a variety of test species are shown in standard soil in pots (Lolium perenne (LOLPE), Amaranthus retoflexus (AMARE), Abutilon theophrasti (ABUTH), Setaria faberi (SETFA), Echinochloa crus-galli (ECHCG), Ipomoea hederacea (IPOHE)). After cultivation for one day (pre-emergence) or after 8 days cultivation (post-emergence) under controlled conditions in a glasshouse (at 24/16° C., day/night; 14 hours light; 65% humidity), the plants are sprayed with an aqueous spray solution derived from the formulation of the technical active ingredient in acetone/water (50:50) solution containing 0.5% Tween 20 (polyoxyethelyene sorbitan monolaurate, CAS RN 9005-64-5). Compounds are applied at 500 g/h. The test plants are then grown in a glasshouse under controlled conditions in a glasshouse (at 24/16° C., day/night; 14 hours light; 65% humidity) and watered twice daily. After 13 days for pre and post-emergence, the test is evaluated for the percentage damage caused to the plant. The biological activities are shown in the following table on a five point scale (5=80-100%; 4=60-79%; 3=40-59%; 2=20-39%; 1=0-19%).

[2] = test system: Amaranthus retoflexus (AMARE); assay: Glasshouse herbicide test, pre-emergence; details: PRE Application; 500 g/h; evaluated after 13 days
Protocol: as §1

Setaria faberi (SETFA) [3] = assay: Glasshouse herbicide test, pre-emergence; details: PRE Application; 500 g/h; evaluated after 13 days
Protocol: as §1

[4] = test system: Ipomoea hederacea (IPOHE); assay: Glasshouse herbicide test, pre-emergence; details: PRE Application; 500 g/h; evaluated after 13 days
Protocol: as §1

[5] = test system: Abutilon theophrasti (ABUTH); assay: Glasshouse herbicide test, pre-emergence; details: PRE Application; 500 g/h; evaluated after 13 days
Protocol: as §1

[6] = test system: Echinochloa crus-galli (ECHCG); assay: Glasshouse herbicide test, post-emergence; details: POST Application; 500 g/h; evaluated after 13 days
Protocol: as §1

[7] = test system: Amaranthus retoflexus (AMARE); assay: Glasshouse herbicide test, post-emergence; details: POST Application; 500 g/h; evaluated after 13 days
Protocol: as §1

Setaria faberi (SETFA) [8] = assay: Glasshouse herbicide test, post-emergence; details: POST Application; 500 g/h; evaluated after 13 days
Protocol: as §1

[9] = test system: Ipomoea hederacea (IPOHE); assay: Glasshouse herbicide test, post-emergence; details: POST Application; 500 g/h; evaluated after 13 days
Protocol: as §1

[10] = test system: Abutilon theophrasti (ABUTH); assay: Glasshouse herbicide test, post-emergence; details: POST Application; 500 g/h; evaluated after 13 days
Protocol: as §1

Row | SMILES | percentage damage caused to the plant, five point scale, ECHCG [1] | percentage damage caused to the plant, five point scale, AMARE [2] | percentage damage caused to the plant, five point scale, SETFA (Setaria faberi (SETFA) [3]) | percentage damage caused to the plant, five point scale, IPOHE [4] | percentage damage caused to the plant, five point scale, ABUTH [5] | percentage damage caused to the plant, five point scale, ECHCG [6] | percentage damage caused to the plant, five point scale, AMARE [7] | percentage damage caused to the plant, five point scale, SETFA (Setaria faberi (SETFA) [8]) | percentage damage caused to the plant, five point scale, IPOHE [9] | percentage damage caused to the plant, five point scale, ABUTH [10]
1 | CON(C(C)=O)c1c(S(C)(=O)=O)ccc(C(=O)Nc2nnnn2C)c1Cl [Compound 1.007] | 5 (5=80-100%) | 5 (5=80-100%) | 3 (3=40-59%) | 5 (5=80-100%) | 5 (5=80-100%) | 5 (5=80-100%) | 5 (5=80-100%) | 5 (5=80-100%) | 5 (5=80-100%) | 5 (5=80-100%)
2 | CCn1nnnc1NC(=O)c1ccc(S(C)(=O)=O)c(N(OC)C(C)=O)c1Cl [Compound 1.008] | 5 (5=80-100%) | 5 (5=80-100%) | 5 (5=80-100%) | 5 (5=80-100%) | 5 (5=80-100%) | 5 (5=80-100%) | 5 (5=80-100%) | 5 (5=80-100%) | 5 (5=80-100%) | 5 (5=80-100%)
3 | CCCn1nnnc1NC(=O)c1ccc(S(C)(=O)=O)c(N(OC)C(C)=O)c1Cl [Compound 1.009, 3-[acetyl(methoxy)amino]-2-chloro-4-methylsulfonyl-N-(1-propyltetrazol-5-yl)benzamide] | 5 (5=80-100%) | 5 (5=80-100%) | 4 (4=60-79%) | 5 (5=80-100%) | 5 (5=80-100%) | 5 (5=80-100%) | 5 (5=80-100%) | 5 (5=80-100%) | 5 (5=80-100%) | 5 (5=80-100%)
4 | CON(C(=O)OC(C)(C)C)c1c(C(F)(F)F)ccc(C(=O)Nc2nnnn2C)c1Cl [Compound 1.025] | 5 (5=80-100%) | 5 (5=80-100%) | 5 (5=80-100%) | 5 (5=80-100%) | 5 (5=80-100%) | 5 (5=80-100%) | 5 (5=80-100%) | 5 (5=80-100%) | 5 (5=80-100%) | 5 (5=80-100%)
5 | CON(C(=O)OC(C)(C)C)c1c(S(C)(=O)=O)ccc(C(=O)Nc2nnnn2C)c1Cl [Compound 1.031] | 5 (5=80-100%) | 5 (5=80-100%) | 5 (5=80-100%) | 5 (5=80-100%) | 5 (5=80-100%) | 5 (5=80-100%) | 5 (5=80-100%) | 5 (5=80-100%) | 5 (5=80-100%) | 5 (5=80-100%)
6 | CON(C)c1c(C(F)(F)F)ccc(C(=O)Nc2nnnn2C)c1Cl [Compound 1.037] | 5 (5=80-100%) | 5 (5=80-100%) | 5 (5=80-100%) | 5 (5=80-100%) | 5 (5=80-100%) | 5 (5=80-100%) | 5 (5=80-100%) | 5 (5=80-100%) | 5 (5=80-100%) | 5 (5=80-100%)
7 | CCn1nnnc1NC(=O)c1ccc(S(C)(=O)=O)c(N(C)OC)c1Cl [Compound 1.044] | 5 (5=80-100%) | 5 (5=80-100%) | 5 (5=80-100%) | 5 (5=80-100%) | 5 (5=80-100%) | 5 (5=80-100%) | 5 (5=80-100%) | 5 (5=80-100%) | 5 (5=80-100%) | 5 (5=80-100%)
8 | CCCn1nnnc1NC(=O)c1ccc(S(C)(=O)=O)c(N(C)OC)c1Cl [Compound 1.045] | 5 (5=80-100%) | 5 (5=80-100%) | 5 (5=80-100%) | 5 (5=80-100%) | 5 (5=80-100%) | 5 (5=80-100%) | 5 (5=80-100%) | 5 (5=80-100%) | 5 (5=80-100%) | 5 (5=80-100%)
9 | CON(C(=O)C(C)C)c1c(C(F)(F)F)ccc(C(=O)Nc2nnnn2C)c1Cl [Compound 1.049] | 5 (5=80-100%) | 5 (5=80-100%) | 5 (5=80-100%) | 5 (5=80-100%) | 5 (5=80-100%) | 5 (5=80-100%) | 5 (5=80-100%) | 5 (5=80-100%) | 5 (5=80-100%) | 5 (5=80-100%)
10 | CCC(=O)N(OC)c1c(C(F)(F)F)ccc(C(=O)Nc2nnnn2C)c1Cl [Compound 1.050] | 5 (5=80-100%) | 5 (5=80-100%) | 5 (5=80-100%) | 4 (4=60-79%) | 5 (5=80-100%) | 5 (5=80-100%) | 5 (5=80-100%) | 5 (5=80-100%) | 5 (5=80-100%) | 5 (5=80-100%)
